Format in all cases: in vivo
In experiment [1] the test system is ABUTH: Abutilon theophrasti. The experiment in a line: Post-emergence herbicidal efficacy at 1280 g/ha, ABUTH. The following applies: rated visually after about 3 weeks vs untreated controls, 100% = plants have died, 0% = like control plants. The procedure, abridged:
(§1)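 Visual damage rating was made roughly 3 weeks after treatment, relative to untreated plants, on a scale where 0% means no effect and 100% means plants died. Foliar application was at the one-leaf stage as an aqueous WP/EC spray with 0.5% additive at 600 L/ha water, on greenhouse-grown pot plants.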

For experiment [2], the system named is AMARE: Amaranthus retroflexus. The experiment in a line: Post-emergence herbicidal efficacy at 1280 g/ha, AMARE. To be noted: rated visually after about 3 weeks vs untreated controls, 100% = plants have died, 0% = like control plants. The procedure, abridged: as §1
Experiment [3] relates to DIGSA: Digitaria sanguinalis. Description: Post-emergence herbicidal efficacy at 1280 g/ha, DIGSA. The following applies: rated visually after about 3 weeks vs untreated controls, 100% = plants have died, 0% = like control plants. As to the method:
(§2) Seeds of mono- and dicotyledonous weed plants were placed in plastic pots in sandy loam soil (doubly sown with in each case one species of mono- or dicotyledonous weed plants per pot), covered with soil and cultivated in a greenhouse under controlled growth conditions. 2 to 3 weeks after sowing, the test plants were treated at the one-leaf stage. The compounds of the invention, formulated in the form of wettable powders (WP) or as emulsion concentrates (EC), were applied to the green parts of the plants as aqueous suspension or emulsion with addition of 0.5% additive at a water application rate equivalent to 600 litres per hectare. After the test plants had been kept in the greenhouse under optimum growth conditions for about 3 weeks, the activity of the preparations was rated visually in comparison to untreated controls. For example, 100% activity=the plants have died, 0% activity=like control plants. Tables A1 to A12 below show the effects of selected compounds of the general formula (I) according to Table 1 on various harmful plants and at an application rate corresponding to 1280 g/ha, which were obtained by the trial procedure specified above.

In experiment [4] the test system is ECHCG: Echinochloa crus-galli. Description: Post-emergence herbicidal efficacy at 1280 g/ha, ECHCG. To be noted: rated visually after about 3 weeks vs untreated controls, 100% = plants have died, 0% = like control plants. As to the method:
as §2

Experiment [5] has as its system KCHSC: Kochia scoparia. The experiment in a line: Post-emergence herbicidal efficacy at 1280 g/ha, KCHSC. The following applies: visual rating about 3 weeks after treatment vs untreated controls. In short, it runs like this: as §1
Experiment [6] deals with POAAN: Poa annua. The experiment in a line: Post-emergence herbicidal efficacy at 1280 g/ha, POAAN. To be noted: visual rating about 3 weeks after treatment vs untreated controls. In short, it runs like this:
as §1

Experiment [7] relates to SETVI: Setaria viridis. Description: Post-emergence herbicidal efficacy at 1280 g/ha, SETVI. The following applies: visual rating about 3 weeks after treatment vs untreated controls. How it is done: as §2
The test system of experiment [8] is STEME: Stellaria media. Description: Post-emergence herbicidal efficacy at 1280 g/ha, STEME. The following applies: visual rating about 3 weeks after treatment vs untreated controls. The procedure, abridged:
as §1

Experiment [9] deals with VERPE: Veronica persica. The experiment in a line: Post-emergence herbicidal efficacy at 1280 g/ha, VERPE. To be noted: visual rating about 3 weeks after treatment vs untreated controls. In short, it runs like this:
as §1

The test system of experiment [10] is ABUTH: Abutilon theophrasti. Description: Pre-emergence herbicide efficacy at 1280 g/ha, ABUTH. The following applies: visual scoring after about 3 weeks vs untreated controls. The procedure, abridged: (§3)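 Weed seeds were sown in sandy loam, covered with soil, and the soil surface was treated with the compound, formulated as wettable powder or emulsion concentrate, in water containing 0.5% additive at 600 L/ha. Plants then grew in the greenhouse for roughly 3 weeks before percentage efficacy was scored by eye against untreated controls.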

Experiment [11] deals with AMARE: Amaranthus retroflexus. Description: Pre-emergence herbicide efficacy at 1280 g/ha, AMARE. To be noted: visual scoring after about 3 weeks vs untreated controls. In short, it runs like this:
as §3

Experiment [12] concerns DIGSA: Digitaria sanguinalis. The experiment in a line: Pre-emergence herbicide efficacy at 1280 g/ha, DIGSA. The following applies: visual scoring after about 3 weeks vs untreated controls. In short, it runs like this:
as §3

Experiment [13] deals with ECHCG: Echinochloa crus-galli. Description: Pre-emergence herbicide efficacy at 1280 g/ha, ECHCG. The following applies: visual scoring after about 3 weeks vs untreated controls. The procedure, abridged: as §3
Experiment [14] deals with POAAN: Poa annua. The experiment in a line: Pre-emergence herbicide efficacy at 1280 g/ha, POAAN. The following applies: visual scoring after about 3 weeks vs untreated controls. In short, it runs like this: as §3
The test system of experiment [15] is SETVI: Setaria viridis. Description: Pre-emergence herbicide efficacy at 1280 g/ha, SETVI. To be noted: visual scoring vs untreated controls. In short, it runs like this:
as §3

For experiment [16], the system named is STEME: Stellaria media. Description: Pre-emergence herbicide efficacy at 1280 g/ha, STEME. The following applies: visual scoring vs untreated controls. The procedure, abridged: as §3
Experiment [17] has as its system KCHSC: Kochia scoparia. Description: Pre-emergence herbicide efficacy at 1280 g/ha, KCHSC. To be noted: visual scoring after about 3 weeks vs untreated controls. From the text: (§4) Seeds of mono- and dicotyledonous weed plants were placed in plastic pots in sandy loam soil (doubly sown with one species each of mono- or dicotyledonous weed plants per pot) and covered with soil. The compounds of the invention, formulated in the form of wettable powders (WP) or as emulsion concentrates (EC), were then applied to the surface of the covering soil as aqueous suspension or emulsion with addition of 0.5% additive at a water application rate of 600 litres per hectare (converted). After the treatment, the pots were placed in a greenhouse and kept under good growth conditions for the test plants. After about 3 weeks, the efficacy of the preparations was scored visually in comparison with untreated controls as percentages. For example, 100% activity=the plants have died, 0% activity=like control plants. Tables C1 to C12 below show the effects of selected compounds of the general formula (I) according to Table 1 on various harmful plants and at an application rate corresponding to 1280 g/ha, which were obtained by the trial procedure specified above.

In experiment [18] the test system is VERPE: Veronica persica. Description: Pre-emergence herbicide efficacy at 1280 g/ha, VERPE. The following applies: visual scoring vs untreated controls.
From the text: as §4

The structures appear in SMILES notation.

The record followed here is patent publication US20250221410A1, “SUBSTITUTED 2-C-AZINES AND SALTS THEREOF, AND USE THEREOF AS HERBICIDAL ACTIVE SUBSTANCES” (BAYER AKTIENGESELLSCHAFT, priority 2022, published 2025).

As to `Fc1ccc(Sc2ccccc2Cc2ncc(Cl)cn2)cc1` [Example 1-99], in experiment [1], the “Post-emergence efficacy at 1280 g/ha against ABUTH in %” value is given as 90%. Further, the “Post-emergence efficacy at 1280 g/ha against AMARE in %” value in [2] amounted to 100%. Further, the “Post-emergence efficacy at 1280 g/ha against DIGSA in %” value in experiment [3] is 90%. Moreover, the “Post-emergence efficacy at 1280 g/ha against ECHCG in %” value in experiment [4] is on record as 100%. Also, the “Post-emergence efficacy against KCHSC” value with KCHSC: Kochia scoparia [5] is 100%. For the same molecule, the “Post-emergence efficacy against POAAN” value in the experiment on POAAN: Poa annua [6] came out at 100%. The “Post-emergence efficacy against SETVI” value in the experiment with SETVI: Setaria viridis [7] was 90%. Besides, the “Post-emergence efficacy against STEME” value in the experiment on STEME: Stellaria media [8] came out at 100%. In addition, the “Post-emergence efficacy against VERPE” value with VERPE: Veronica persica [9] is reported as 90%. In experiment [10], the “Pre-emergence efficacy against ABUTH” value amounted to 90%. For the same molecule, the “Pre-emergence efficacy against AMARE” value in [11] is on record as 100%. The “Pre-emergence efficacy against DIGSA” value in [12] is given as 100%. Also, in experiment [13], the “Pre-emergence efficacy against ECHCG” value is given as 100%. Moreover, the “Pre-emergence efficacy against POAAN” value in the experiment on POAAN: Poa annua [14] is reported as 100%. Moreover, in the experiment on SETVI: Setaria viridis [15], the “Pre-emergence efficacy against SETVI in %” value is reported as 100%. Moreover, in the experiment on STEME: Stellaria media [16], the “Pre-emergence efficacy against STEME in %” value stood at 100%.
Take `Fc1ccc(-c2ccccc2Cc2ncc(Cl)cn2)cc1F` [Example 1-26]: the “Post-emergence efficacy at 1280 g/ha against ABUTH in %” value in [1] is listed as 100%. For the same molecule, the “Post-emergence efficacy at 1280 g/ha against AMARE in %” value in experiment [2] amounted to 100%. The “Post-emergence efficacy at 1280 g/ha against DIGSA in %” value in experiment [3] is on record as 90%. In [4], the “Post-emergence efficacy at 1280 g/ha against ECHCG in %” value amounted to 90%. The “Post-emergence efficacy against KCHSC” value in the experiment on KCHSC: Kochia scoparia [5] is given as 100%. In the experiment with POAAN: Poa annua [6], the “Post-emergence efficacy against POAAN” value came to 90%. Besides, the “Post-emergence efficacy against SETVI” value with SETVI: Setaria viridis [7] amounted to 90%. Also, the “Post-emergence efficacy against STEME” value in the experiment on STEME: Stellaria media [8] came out at 100%. In the experiment with VERPE: Veronica persica [9], the “Post-emergence efficacy against VERPE” value was determined as 100%. In addition, the “Pre-emergence efficacy against ABUTH” value in experiment [10] is on record as 90%. Besides, the “Pre-emergence efficacy against AMARE” value in [11] was 100%. In addition, the “Pre-emergence efficacy against DIGSA” value in [12] came out at 100%. The “Pre-emergence efficacy against ECHCG” value in experiment [13] is listed as 90%. Besides, the “Pre-emergence efficacy against KCHSC” value in the experiment with KCHSC: Kochia scoparia [17] is 100%. Also, the “Pre-emergence efficacy against POAAN” value in the experiment with POAAN: Poa annua [14] is on record as 100%. Further, in the experiment on SETVI: Setaria viridis [15], the “Pre-emergence efficacy against SETVI in %” value is on record as 90%.
With `Fc1cnc(Cc2ccccc2Oc2ncc(Cl)cc2F)nc1` [Example 1-90], in [1], the “Post-emergence efficacy at 1280 g/ha against ABUTH in %” value is reported as 90%. In addition, the “Post-emergence efficacy at 1280 g/ha against AMARE in %” value in experiment [2] stood at 100%. In addition, the “Post-emergence efficacy at 1280 g/ha against DIGSA in %” value in [3] is listed as 90%. In addition, in the experiment on KCHSC: Kochia scoparia [5], the “Post-emergence efficacy against KCHSC” value worked out at 100%. For the same molecule, the “Post-emergence efficacy against POAAN” value in the experiment on POAAN: Poa annua [6] is 100%. The “Post-emergence efficacy against STEME” value in the experiment with STEME: Stellaria media [8] is 90%. In addition, in the experiment with VERPE: Veronica persica [9], the “Post-emergence efficacy against VERPE” value worked out at 100%. Also, the “Pre-emergence efficacy against ABUTH” value in [10] turned out to be 100%. The “Pre-emergence efficacy against AMARE” value in [11] is listed as 100%. Besides, the “Pre-emergence efficacy against DIGSA” value in experiment [12] came to 100%. In experiment [13], the “Pre-emergence efficacy against ECHCG” value stood at 100%. Moreover, in the experiment on KCHSC: Kochia scoparia [17], the “Pre-emergence efficacy against KCHSC” value came out at 100%. In addition, the “Pre-emergence efficacy against POAAN” value in the experiment with POAAN: Poa annua [14] was 100%. In addition, in the experiment with SETVI: Setaria viridis [15], the “Pre-emergence efficacy against SETVI in %” value worked out at 90%. Moreover, the “Pre-emergence efficacy against STEME in %” value in the experiment on STEME: Stellaria media [16] was determined as 90%. In addition, in the experiment on VERPE: Veronica persica [18], the “Pre-emergence efficacy against VERPE in %” value is recorded as 100%.
